According to patent publication US5861404A, “2,9-disubstituted purin-6-ones” (Bayer Aktiengesellschaft, priority 1995, dated 1999):

Legend:
Assay type in all cases: biochemical
[1] = test system: cGMP-specific PDE V; assay: Inhibition of the phosphodiesterases in vitro: PDE V; conditions: PDE V from porcine small intestine, porcine aorta and/or human blood platelets; nucleotide 10^-6 mol/l; pH 7.5, 30 minutes
Experimental: (§1) The cGMP-stimulatable PDE II, the cGMP-inhibitable PDE III and the cAMP-specific PDE IV were isolated from either porcine or bovine myocardium. The Ca-calmodulin-stimulatable PDE I was isolated from the porcine aorta or porcine brain. The cGMP-specific PDE V was obtained from the porcine small intestine, porcine aorta and/or human blood platelets. Purification was carried out by anion exchange chromatography over MonoQ Phaacia essentially by the method of M. Hoey and Miles D. Houslay, Biochemical Pharmacology, Vol. 40, 193-202 (1990).
(§2) The enzyme activity is determined in a test batch of 100 μl in 20 mM Tris/HCl buffer of pH 7.5 which comprises 5 mM MgCl2, 0.1 mg/ml of bovine serum albumin and either 800 Bq of ^3 HcAMP or ^3 HcGMP. The final concentration of the corresponding nucleotides is 10^-6 mol/l. The reaction is started by addition of the enzyme and the amount of enzyme is chosen such that about 50% of the substrate is reacted during the incubation time of 30 minutes. To test the cGMP-stimulatable PDE II, ^3 HcAMP is used as the substrate and 10^-6 mol/l of non-labelled cGMP is added to the batch. To test the Ca-calmodulin-dependent PDE I, 1 μM CaCl2 and 0.1 μM calmodulin are also added to the reaction batch. The reaction is stopped by addition of 100 μl of acetonitrile which comprises 1 mnM cAMP and 1 mM AMP. 100 μl of the reaction batch are separated on the HPLC column and the cleavage products are determined quantitatively "online" with a flow-through scintillation counter. The substance concentration at which the rate of reaction is reduced by 50% is measured.

[2] = test system: cGMP-stimulatable PDE II; assay: Inhibition of the phosphodiesterases in vitro: PDE II; conditions: PDE II from porcine or bovine myocardium; 3H-cAMP substrate 10^-6 mol/l with 10^-6 mol/l cGMP; pH 7.5, 30 minutes
Experimental: as §1, §2

[3] = test system: Ca-calmodulin-stimulatable PDE I; assay: Inhibition of the phosphodiesterases in vitro: PDE I; conditions: PDE I from porcine aorta or porcine brain; nucleotide 10^-6 mol/l; 1 μM CaCl2, 0.1 μM calmodulin; pH 7.5, 30 minutes
Experimental: as §1, §2

SMILES	IC50 [1] [µM]	IC50 [2] [µM]	IC50 [3] [µM]
CC(CCCc1ccccc1)n1cnc2c(=O)[nH]c(-c3ccc(-c4ccccc4)cc3)nc21 (centres unmarked) [Example 20]	1	0.4	1
CC(O)C(CCCc1ccccc1)n1cnc2c(=O)[nH]c(C3CCCCC3)nc21 (centres unmarked) [Example 8, 9-(2-hydroxy-6phenyl-3-hexyl)-2-cyclohexyl-purin-6one]	–	2	40
CC(CCCc1ccccc1)n1cnc2c(=O)[nH]c(-c3ccc4c(c3)OCO4)nc21 (centres unmarked) [Example 25]	10	0.1	3
CCCCCCC(C(C)O)n1cnc2c(=O)[nH]c(-c3ccc(Cl)cc3)nc21 (centres unmarked) [Example 5]	50	3	10
CC(CCCc1ccccc1)n1cnc2c(=O)[nH]c(C3CC3)nc21 (centres unmarked) [Example 14]	0.3	0.6	4
